According to ChEMBL document CHEMBL5113517, “Structure-Based Design, Optimization, and Evaluation of Potent Stabilized Peptide Inhibitors Disrupting MTDH and SND1 Interaction” (J Med Chem, 2022):
Numbered stars: 1 amine (or outer) side, 2 acyl side, 3 side chain; on linkers, the order of the positions; unused ones are H or OH. Bridge positions count the residues as written; N and C are the ends. Square brackets hold non-standard residues; d marks the D form. Peptide text beside a SMILES is read from it. I, II: the chains in the order shown. ξ: configuration not given here. X1 = N[C@@H](CC(=O)[*:1])C(=O)[*:2]; Dap = NC[C@H](N)C(=O)O; ξD = NC(CC(=O)O)C(=O)O

Experiment: Drug uptake in human MDA-MB-231 cells assessed as increase in cell penetration at 10 uM incubated for 12 hrs by flow cytometry method
Assay type: ADME, cell-based
Conditions: mda-mb-231, 12 h; call rule not given here

Row | SMILES | Drug uptake
1 | CC(C)[C@H](NC(=O)[C@H](Cc1c[nH]c2ccccc12)NC(=O)[C@H](CC(N)=O)NC(=O)CNC(=O)[C@H](Cc1c[nH]c2ccccc12)NC(=O)[C@H](CCC(=O)O)NC(=O)[C@H](CCC(=O)O)NC(=O)[C@H](C)NC(=O)[C@@H]1CCCN1C(=O)[C@@H]1CNC(=O)[C@@H](NC(=O)[C@@H](N)CC(=O)O)CC(=O)N[C@@H](Cc2c[nH]c3ccccc23)C(=O)N[C@@H](CC(N)=O)C(=O)N1)C(=O)N[C@@H](CC(=O)O)C(=O)N[C@@H](CCC(=O)O)C(N)=O | Active
2 | CC(C)[C@H](NC(=O)[C@H](Cc1c[nH]c2ccccc12)NC(=O)[C@H](CC(N)=O)NC(=O)CNC(=O)[C@H](Cc1c[nH]c2ccccc12)NC(=O)[C@H](CCC(=O)O)NC(=O)[C@@H]1CNC(=O)CC(NC(=O)[C@H](CC(N)=O)NC(=O)[C@H](Cc2c[nH]c3ccccc23)NC(=O)[C@@H](N)CC(=O)O)C(=O)N2CCC[C@H]2C(=O)N[C@@H](C)C(=O)N1)C(=O)N[C@@H](CC(=O)O)C(=O)N[C@@H](CCC(=O)O)C(N)=O (stereo partly specified) (H-DWN[ξD]PA[Dap]EWGNWVDE-NH2; lactam 4-7) | Active
3 | CC(C)[C@H](NC(=O)[C@H](Cc1c[nH]c2ccccc12)NC(=O)[C@H](CC(N)=O)NC(=O)CNC(=O)[C@H](Cc1c[nH]c2ccccc12)NC(=O)[C@@H]1CNC(=O)[C@@H](NC(=O)[C@H](C)NC(=O)[C@H](CC(N)=O)NC(=O)[C@H](Cc2c[nH]c3ccccc23)NC(=O)[C@@H](N)CC(=O)O)CC(=O)N[C@@H](C)C(=O)N[C@@H](CCC(=O)O)C(=O)N1)C(=O)N[C@@H](CC(=O)O)C(=O)N[C@@H](CCC(=O)O)C(N)=O (I: AE[Dap]WGNWVDE-NH2 / II: H-DWNAD; amide I:3-II:C, I:N-II:5) | Active

Experiment: Binding affinity to MTDH /His-SND1 (unknown origin) expressed in Escherichia coli BL21(DE3) assessed as dissociation constant by fluorescence polarization assay
Parameters: species or system Homo sapiens
Conditions: not given

Row | SMILES | Kd [nM]
4 | CC(C)[C@H](NC(=O)[C@H](Cc1c[nH]c2ccccc12)NC(=O)[C@H](CC(N)=O)NC(=O)CNC(=O)[C@H](Cc1c[nH]c2ccccc12)NC(=O)[C@H](CCC(=O)O)NC(=O)[C@H](CCC(=O)O)NC(=O)[C@H](C)NC(=O)[C@@H]1CCCN1C(=O)[C@@H]1CNC(=O)[C@@H](NC(=O)[C@@H](N)CC(=O)O)CC(=O)N[C@@H](Cc2c[nH]c3ccccc23)C(=O)N[C@@H](CC(N)=O)C(=O)N1)C(=O)N[C@@H](CC(=O)O)C(=O)N[C@@H](CCC(=O)O)C(N)=O | 121
5 | C[C@@H]1NC(=O)C[C@H](N)C(=O)NC[C@@H](C(=O)N[C@@H](CC(=O)O)C(=O)N[C@@H](Cc2c[nH]c3ccccc23)C(=O)N[C@@H](CC(N)=O)C(=O)N[C@@H](C)C(=O)N2CCC[C@H]2C(=O)N[C@@H](C)C(=O)N[C@@H](CCC(=O)O)C(=O)N[C@@H](CCC(=O)O)C(=O)N[C@@H](Cc2c[nH]c3ccccc23)C(=O)NCC(=O)N[C@@H](CC(N)=O)C(N)=O)NC(=O)[C@H](C)NC1=O (AA[Dap]DWNAPAEEWGN-NH2; linker N-3 via X1) | 231
6 | CC[C@H](C)[C@H](NC(=O)[C@H](CC(N)=O)NC(=O)[C@H](Cc1c[nH]c2ccccc12)NC(=O)[C@H](CC(=O)O)NC(=O)[C@@H]1CNC(=O)[C@@H](N)CC(=O)N[C@@H](C)C(=O)N[C@@H](C)C(=O)N1)C(=O)N[C@@H](Cc1ccc(O)cc1)C(=O)N[C@@H](C)C(=O)N[C@@H](Cc1ccc(O)cc1)C(=O)N[C@@H](CCC(=O)O)C(=O)N[C@@H](Cc1c[nH]c2ccccc12)C(=O)NCC(=O)N[C@@H](CC(N)=O)C(=O)N[C@@H](CC(=O)O)C(N)=O (AA[Dap]DWNIYAYEWGND-NH2; linker N-3 via X1) | 443
7 | CC[C@H](C)[C@H](NC(=O)[C@H](CC(N)=O)NC(=O)[C@H](Cc1c[nH]c2ccccc12)NC(=O)[C@H](CC(=O)O)NC(=O)[C@@H]1CNC(=O)[C@@H](N)CC(=O)N[C@@H](C)C(=O)N[C@@H](C)C(=O)N1)C(=O)N[C@@H](Cc1ccc(O)cc1)C(=O)N[C@@H](C)C(=O)N[C@@H](Cc1ccc(O)cc1)C(=O)N[C@@H](CCC(=O)O)C(=O)N[C@@H](Cc1c[nH]c2ccccc12)C(=O)NCC(=O)N[C@@H](CC(N)=O)C(=O)N[C@@H](CCC(=O)O)C(N)=O (AA[Dap]DWNIYAYEWGNE-NH2; linker N-3 via X1) | 451
8 | CC[C@H](C)[C@H](NC(=O)[C@H](CC(N)=O)NC(=O)[C@H](Cc1c[nH]c2ccccc12)NC(=O)[C@H](CC(=O)O)NC(=O)[C@@H]1CNC(=O)[C@@H](N)CC(=O)N[C@@H](C)C(=O)N[C@@H](C)C(=O)N1)C(=O)N[C@@H](Cc1ccc(O)cc1)C(=O)N[C@@H](C)C(=O)N[C@@H](Cc1ccc(O)cc1)C(=O)N[C@@H](CCC(=O)O)C(=O)N[C@@H](Cc1c[nH]c2ccccc12)C(=O)NCC(=O)N[C@@H](CC(N)=O)C(=O)N[C@@H](Cc1c[nH]cn1)C(N)=O (AA[Dap]DWNIYAYEWGNH-NH2; linker N-3 via X1) | 671
9 | C[C@H](NC(=O)[C@@H]1CCCN1C(=O)[C@H](C)NC(=O)[C@H](CC(N)=O)NC(=O)[C@H](Cc1c[nH]c2ccccc12)NC(=O)[C@@H](N)CC(=O)O)C(=O)N[C@@H](CCC(=O)O)C(=O)N[C@@H](CCC(=O)O)C(=O)N[C@@H](Cc1c[nH]c2ccccc12)C(=O)NCC(=O)N[C@@H](CC(N)=O)C(=O)O (H-DWNAPAEEWGN-OH) | 211
10 | CC(C)[C@H](NC(=O)[C@H](Cc1c[nH]c2ccccc12)NC(=O)[C@H](CC(N)=O)NC(=O)CNC(=O)[C@H](Cc1c[nH]c2ccccc12)NC(=O)[C@H](CCC(=O)O)NC(=O)[C@@H]1CNC(=O)CC(NC(=O)[C@H](CC(N)=O)NC(=O)[C@H](Cc2c[nH]c3ccccc23)NC(=O)[C@@H](N)CC(=O)O)C(=O)N2CCC[C@H]2C(=O)N[C@@H](C)C(=O)N1)C(=O)N[C@@H](CC(=O)O)C(=O)N[C@@H](CCC(=O)O)C(N)=O (stereo partly specified) (H-DWN[ξD]PA[Dap]EWGNWVDE-NH2; lactam 4-7) | 171
11 | CC(C)[C@H](NC(=O)[C@H](Cc1c[nH]c2ccccc12)NC(=O)[C@H](CC(N)=O)NC(=O)CNC(=O)[C@H](Cc1c[nH]c2ccccc12)NC(=O)[C@H](CCC(=O)O)NC(=O)[C@H](CCC(=O)O)NC(=O)[C@H](C)NC(=O)[C@@H]1CCCN1C(=O)[C@H](C)NC(=O)[C@H](CC(N)=O)NC(=O)[C@H](Cc1c[nH]c2ccccc12)NC(=O)[C@H](CC(=O)O)NC(=O)[C@H](CO)NC(=O)[C@@H](N)CC(N)=O)C(=O)O (H-NSDWNAPAEEWGNWV-OH) | 152
12 | C[C@H](NC(=O)[C@H](CO)NC(=O)[C@@H](N)CO)C(=O)N[C@@H](CC(=O)O)C(=O)N1CCC[C@H]1C(=O)N[C@@H](CC(N)=O)C(=O)N[C@@H](CO)C(=O)N[C@@H](CC(=O)O)C(=O)N[C@@H](Cc1c[nH]c2ccccc12)C(=O)N[C@@H](CC(N)=O)C(=O)N[C@@H](C)C(=O)N1CCC[C@H]1C(=O)N[C@@H](C)C(=O)N[C@@H](CCC(=O)O)C(=O)N[C@@H](CCC(=O)O)C(=O)N[C@@H](Cc1c[nH]c2ccccc12)C(=O)NCC(=O)N[C@@H](CC(N)=O)C(=O)O (H-SSADPNSDWNAPAEEWGN-OH) | 118
13 | CC(C)[C@H](NC(=O)[C@H](Cc1c[nH]c2ccccc12)NC(=O)[C@H](CC(N)=O)NC(=O)CNC(=O)[C@H](Cc1c[nH]c2ccccc12)NC(=O)[C@H](CCC(=O)O)NC(=O)[C@H](CCC(=O)O)NC(=O)[C@H](C)NC(=O)[C@@H]1CCCN1C(=O)[C@H](C)NC(=O)[C@H](CC(N)=O)NC(=O)[C@H](Cc1c[nH]c2ccccc12)NC(=O)[C@H](CC(=O)O)NC(=O)[C@H](CO)NC(=O)[C@H](CC(N)=O)NC(=O)[C@@H]1CCCN1C(=O)[C@H](CC(=O)O)NC(=O)[C@H](C)NC(=O)[C@H](CO)NC(=O)[C@@H](N)CO)C(=O)N[C@@H](CC(=O)O)C(=O)N[C@@H](CCC(=O)O)C(=O)O (H-SSADPNSDWNAPAEEWGNWVDE-OH) | 62.4
14 | CC(C)[C@H](NC(=O)[C@H](Cc1c[nH]c2ccccc12)NC(=O)[C@H](CC(N)=O)NC(=O)CNC(=O)[C@H](Cc1c[nH]c2ccccc12)NC(=O)[C@@H]1CNC(=O)[C@@H](NC(=O)[C@H](C)NC(=O)[C@H](CC(N)=O)NC(=O)[C@H](Cc2c[nH]c3ccccc23)NC(=O)[C@@H](N)CC(=O)O)CC(=O)N[C@@H](C)C(=O)N[C@@H](CCC(=O)O)C(=O)N1)C(=O)N[C@@H](CC(=O)O)C(=O)N[C@@H](CCC(=O)O)C(N)=O (I: AE[Dap]WGNWVDE-NH2 / II: H-DWNAD; amide I:3-II:C, I:N-II:5) | 171
15 | C[C@H](NC(=O)[C@H](CC(N)=O)NC(=O)[C@@H]1CNC(=O)[C@@H](N)CC(=O)N[C@@H](Cc2c[nH]c3ccccc23)C(=O)N[C@@H](CC(N)=O)C(=O)N1)C(=O)N[C@@H](CCC(=O)O)C(=O)N[C@@H](CCC(=O)O)C(=O)N[C@@H](Cc1c[nH]c2ccccc12)C(=O)NCC(=O)N[C@@H](CC(N)=O)C(N)=O (WN[Dap]NAEEWGN-NH2; linker N-3 via X1) | 697
16 | C[C@H](NC(=O)[C@H](CC(N)=O)NC(=O)[C@@H]1CNC(=O)[C@@H](N)CC(=O)N[C@@H](Cc2c[nH]c3ccccc23)C(=O)N[C@@H](CC(N)=O)C(=O)N1)C(=O)N[C@@H](Cc1ccccc1)C(=O)N[C@@H](CCC(=O)O)C(=O)N[C@@H](Cc1c[nH]c2ccccc12)C(=O)NCC(=O)N[C@@H](CC(N)=O)C(N)=O (WN[Dap]NAFEWGN-NH2; linker N-3 via X1) | 1720
17 | C[C@H](NC(=O)[C@H](CC(N)=O)NC(=O)[C@@H]1CNC(=O)[C@@H](N)CC(=O)N[C@@H](Cc2c[nH]c3ccccc23)C(=O)N[C@@H](CC(N)=O)C(=O)N1)C(=O)N[C@@H](Cc1ccc(O)cc1)C(=O)N[C@@H](CCC(=O)O)C(=O)N[C@@H](Cc1c[nH]c2ccccc12)C(=O)NCC(=O)N[C@@H](CC(N)=O)C(N)=O (WN[Dap]NAYEWGN-NH2; linker N-3 via X1) | 932
18 | C[C@H](NC(=O)[C@@H]1CCCN1C(=O)[C@@H]1CNC(=O)[C@@H](N)CC(=O)N[C@@H](Cc2c[nH]c3ccccc23)C(=O)N[C@@H](CC(N)=O)C(=O)N1)C(=O)N[C@@H](CCC(=O)O)C(=O)N[C@@H](CCC(=O)O)C(=O)N[C@@H](Cc1c[nH]c2ccccc12)C(=O)NCC(=O)N[C@@H](CC(N)=O)C(N)=O (WN[Dap]PAEEWGN-NH2; linker N-3 via X1) | 584
19 | C[C@H](NC(=O)[C@@H]1CCCN1C(=O)[C@@H]1CNC(=O)[C@@H](N)CC(=O)N[C@@H](Cc2c[nH]c3ccccc23)C(=O)N[C@@H](CC(N)=O)C(=O)N1)C(=O)N[C@@H](Cc1ccccc1)C(=O)N[C@@H](CCC(=O)O)C(=O)N[C@@H](Cc1c[nH]c2ccccc12)C(=O)NCC(=O)N[C@@H](CC(N)=O)C(N)=O (WN[Dap]PAFEWGN-NH2; linker N-3 via X1) | 992
20 | C[C@H](NC(=O)[C@@H]1CCCN1C(=O)[C@@H]1CNC(=O)[C@@H](N)CC(=O)N[C@@H](Cc2c[nH]c3ccccc23)C(=O)N[C@@H](CC(N)=O)C(=O)N1)C(=O)N[C@@H](Cc1ccc(O)cc1)C(=O)N[C@@H](CCC(=O)O)C(=O)N[C@@H](Cc1c[nH]c2ccccc12)C(=O)NCC(=O)N[C@@H](CC(N)=O)C(N)=O (WN[Dap]PAYEWGN-NH2; linker N-3 via X1) | 585
21 | C[C@H](NC(=O)[C@H](Cc1ccc(O)cc1)NC(=O)[C@@H]1CNC(=O)[C@@H](N)CC(=O)N[C@@H](Cc2c[nH]c3ccccc23)C(=O)N[C@@H](CC(N)=O)C(=O)N1)C(=O)N[C@@H](Cc1ccc(O)cc1)C(=O)N[C@@H](CCC(=O)O)C(=O)N[C@@H](Cc1c[nH]c2ccccc12)C(=O)NCC(=O)N[C@@H](CC(N)=O)C(N)=O (WN[Dap]YAYEWGN-NH2; linker N-3 via X1) | 943
